# Like-named read-outs stand apart in the source and are kept apart here. Non-standard residues stand in square brackets, D forms with d. Residues, ends and D or L forms follow the SMILES beside them. *: point of attachment. Sta = CC(C)C[C@H](N)[C@@H](O)CC(=O)O; Isovaleryl = CC(C)CC(=O)*
# What was measured:
# [1] = biological target: T1, R-ChHNL (Chamberlinius hualienensis, UniProt A0A0H5BR52); test: Dynamic (kinetic) analysis, racemic mandelonitrile as substrate (decomposition reaction); assay type: biochemical
# [2] = biological target: T1, R-ChHNL; test: Dynamic (kinetic) analysis, aldehyde substrates, Hanes-Woolf plot
# [3] = biological target: T1, R-ChHNL; test: Search of inhibitor of R-ChHNL activity (remaining activity); assay type: biochemical
# [4] = biological target: T1, R-ChHNL; test: Substrate identification by cyanohydrin synthetic reaction; assay type: biochemical; conditions: 50 mM carbonyl compound, 100 mM KCN, pH 4.2, 25° C., 5 minutes (aliphatic: 2 hours)
# [5] = test system: Cc1cccc(C=O)c1; test: purified protein, by the assay type; conditions: other: aldehydes other than benzaldehyde; condition similar to the above-described condition; pH 5.2
# [6] = test system: Cc1ccc(C=O)cc1; test: purified protein, by the assay type; conditions: other: aldehydes other than benzaldehyde; condition similar to the above-described condition; pH 5.2
# [7] = test system: O=Cc1cccc2ccccc12; test: purified protein, by the assay type; conditions: other: aldehydes other than benzaldehyde; condition similar to the above-described condition; pH 5.2
# [8] = assay type: biochemical, Chamberlinius hualienensis
# Method: The stability to temperature was measured by performing the reaction in a reaction mixture of pH 7.0 at the temperature range of 0 to 70° C. for 1 hour. In addition, the reaction was similarly performed except that the reaction temperature was adjusted to 20° C. and pH was changed in the range of 3 to 11. In the reaction, citrate-phosphate buffer was used when pH was 3 to 8, and glycine-NaOH buffer was used when pH was 8 to 11. The enzyme activity was measured according to the method described in Dadashipour et al. (2011). […] In addition, the relation between the reaction temperature and the remaining activity and the relation between the reaction pH and the remaining activity of both R-ChHNLs are respectively shown in FIG. 7(A) and FIG. 7(B).
# [9] = Decomposition reaction from racemic mandelonitrile to benzaldehyde, absorbance at 280 nm; assay type: biochemical, Chamberlinius hualienensis; conditions: purified enzyme; decomposition: 2 mM racemic mandelonitrile, pH 5.0-5.5, 22° C.
# [10] = aldehydes other than benzaldehyde, condition similar to the above-described condition
# [11] = aldehydes other than benzaldehyde, relative to benzaldehyde at pH 5.2 and 22° C.
# [12] = 10 mM, pH 7.0, 20° C., 60 minutes
# [13] = concentration not given (1 mM or 0.1 mM), pH 7.0, 20° C., 60 minutes
# [14] = 1 mM, pH 7.0, 20° C., 60 minutes
# [15] = 1 mM, pH 7.0, 20° C., 60 minutes, read-out: Remaining activity
# [16] = 10 mM, pH 7.0, 20° C., 60 minutes, read-out: Remaining activity
# [17] = 100 μg/mL, pH 7.0, 20° C., 60 minutes
molecule,measurement,setting,value
"N#CC(O)c1ccccc1 (racemic) [racemic mandelonitrile, mandelonitrile]",Km,[1],5.5 mM
same,Vmax,[1],2819 µmol/min/mg
same,kcat,[1],1168 s⁻¹
same,max S.A. (specific activity),[1],1896 U/mg
O=Cc1cccc2ccccc12 [1-naphthalenecarboxaldehyde],max S.A. (specific activity),[2]; [10],326 U/mg
same,relative S.A.,[2]; [11],4.4
"Cc1ccc(C=O)c(C)c1 [2,4-dimethylbenzaldehyde]",Km,[2]; [10],0.94 mM
same,Vmax,[2]; [10],632.2 µmol/min/mg
same,kcat,[2]; [10],261.8 s⁻¹
same,max S.A. (specific activity),[2]; [10],654 U/mg
same,relative S.A.,[2]; [11],8.8
OCCS [2-mercaptoethanol],Remaining activity,[3]; [12],95%
Cc1ccccc1C=O [2-methylbenzaldehyde],Km,[2]; [10],3.1 mM
same,Vmax,[2]; [10],2564.9 µmol/min/mg
same,kcat,[2]; [10],1062.3 s⁻¹
same,max S.A. (specific activity),[2]; [10],2395 U/mg
same,relative S.A.,[2]; [11],32.2
O=Cc1cccs1 [2-thiophenecarboxaldehyde],Km,[2]; [10],18.7 mM
same,Vmax,[2]; [10],3522 µmol/min/mg
same,kcat,[2]; [10],1459 s⁻¹
same,max S.A. (specific activity),[2]; [10],2403 U/mg
same,relative S.A.,[2]; [11],32.3
COc1cccc(C=O)c1 [3-methoxybenzaldehyde],Km,[2]; [10],5.7 mM
same,Vmax,[2]; [10],3228.2 µmol/min/mg
same,kcat,[2]; [10],1337 s⁻¹
same,max S.A. (specific activity),[2]; [10],3326 U/mg
same,relative S.A.,[2]; [11],44.7
Cc1cccc(C=O)c1 [3-methylbenzaldehyde],max S.A. (specific activity),[2]; [10],12657 U/mg
same,relative S.A.,[2]; [11],170.3
O=Cc1ccc(Br)cc1 [4-bromobenzaldehyde],Km,[2]; [10],9.5 mM
same,Vmax,[2]; [10],19940 µmol/min/mg
same,kcat,[2]; [10],8259 s⁻¹
same,max S.A. (specific activity),[2]; [10],17375 U/mg
same,relative S.A.,[2]; [11],233.8
COc1ccc(C=O)cc1 [4-methoxybenzaldehyde],Km,[2]; [10],6.7 mM
same,Vmax,[2]; [10],7482 µmol/min/mg
same,kcat,[2]; [10],3099 s⁻¹
same,max S.A. (specific activity),[2]; [10],6849 U/mg
same,relative S.A.,[2]; [11],92.1
Cc1ccc(C=O)cc1 [4-methylbenzaldehyde],max S.A. (specific activity),[2]; [10],11072 U/mg
same,relative S.A.,[2]; [11],149.0
O=[N+]([O-])[O-].[Ag+] [AgNO3],Remaining activity,[3]; [13],68%
[Cl][Cd][Cl] [CdCl2],Remaining activity,[3]; [13],99%
[Cl-].[Cl-].[Co+2] [CoCl2],Remaining activity,[3]; pH 7,95%
[Cl][Cr]([Cl])[Cl] [CrCl3],Remaining activity,[3]; [13],88%
O=S(=O)([O-])[O-].[Cu+2] [CuSO4],Remaining activity,[3]; [13],100%
O[C@@H](CS)[C@@H](O)CS [DTT],Remaining activity,[3]; [13],100%
O=C(O)CN(CCN(CC(=O)O)CC(=O)O)CC(=O)O [EDTA],Remaining activity,[3]; [12],100%
[Cl][Fe]([Cl])[Cl] [FeCl3],Remaining activity,[3]; [13],100%
[Cl][Hg][Cl] [HgCl2],Remaining activity,[3]; [13],64%
O=S(=O)([O-])[O-].[Mn+2] [MnSO4],Remaining activity,[3]; [13],106%
CCN1C(=O)C=CC1=O [N-ethylmaleimide],Remaining activity,[3]; [13],100%
[Cl][Ni][Cl] [NiCl2],Remaining activity,[3]; [13],93%
[Cl][Pb][Cl] [PbCl2],Remaining activity,"[3]; 0.1 mM, pH 7.0, 20° C., 60 minutes",98%
same,Remaining activity,[3]; [14],77%
O=S(=O)([O-])[O-].[Zn+2] [ZnSO4],Remaining activity,[3]; [13],100%
CCC1(CC)C(=O)NC(=O)NC1=O [barbital sodium],Remaining activity,[3]; [13],93%
O=Cc1ccccc1 [benzaldehyde],max S.A. (specific activity),"[2]; pH5.2, 22° C.",7433 U/mg
same,relative S.A.,"[2]; pH5.2, 22° C., the reference case (100)",100
same,max S.A. (specific activity),"[2]; pH5.8, 35° C.",17141 U/mg
same,relative S.A.,"[2]; pH5.8, 35° C., relative to benzaldehyde at pH 5.2 and 22° C.",230.6
same,activity of R-ChHNL on the carbonyl compound as substrate,[4],recognizes
CCOC(=O)OC(=O)OCC [diethylpyrocarbonate],remaining activity at 1000 µM,[3]; [15],100%
same,remaining activity at 10000 µM,[3]; [16],79%
O=C1NC(=O)C(c2ccccc2)(c2ccccc2)N1 [diphenylhydantoin],Remaining activity,[3]; [13],100%
O=C(O)c1cc(SSc2ccc([N+](=O)[O-])c(C(=O)O)c2)ccc1[N+](=O)[O-] [dithionitrobenzoic acid],Remaining activity,[3]; [13],97%
NN [hydrazine],Remaining activity,[3]; [13],100%
NC(=O)CI [iodoacetamide],remaining activity at 1000 µM,[3]; [15],75%
same,remaining activity at 10000 µM,[3]; [16],28%
same,inhibition of the activity of R-ChHNL,[3]; concentration increased to 10 mM,inhibit
O=C(O)CI [iodoacetic acid],inhibition of the activity of R-ChHNL,[3],inhibit
same,remaining activity at 1000 µM,[3]; pH 7,52%
same,remaining activity at 10000 µM,[3]; pH 7,18%
CC(=O)N[C@@H](CC(C)C)C(=O)N[C@@H](CC(C)C)C(=O)N[C@H](C=O)CCCNC(=N)N [leupeptin],remaining activity at 100 µg/mL,[3]; [17],86%
O=C(O)c1cc[c]([Hg][Cl])cc1 [p-chloromercuribenzoic acid],Remaining activity,[3]; [13],100%
CC(C)CC(=O)N[C@H](C(=O)N[C@H](C(=O)N[C@@H](CC(C)C)[C@@H](O)CC(=O)N[C@@H](C)C(=O)N[C@@H](CC(C)C)[C@@H](O)CC(=O)O)C(C)C)C(C)C [pepstatin A] (Isovaleryl-VV[Sta]A[Sta]-OH),Remaining activity,[3]; [17],89%
"O=S(=O)(F)Cc1ccccc1 [phenylmethylsulfonyl fluoride (PMSF), phenylmethylsulfonyl fluoride]",Remaining activity,[3]; [14],91%
same,Remaining activity,[3]; [12],60%
NC(=S)Nc1ccccc1 [phenylthiourea],Remaining activity,[3]; [13],100%
O=Cc1ccc2c(c1)OCO2 [piperonal],Km,[2]; [10],5.6 mM
same,Vmax,[2]; [10],3006.6 µmol/min/mg
same,kcat,[2]; [10],1245.2 s⁻¹
same,max S.A. (specific activity),[2]; [10],2748 U/mg
same,relative S.A.,[2]; [11],37.0
N[C@@H](CCC(=O)N[C@@H](CS)C(=O)NCC(=O)O)C(=O)O [reduced glutathione],Remaining activity,[3]; pH 7,93%
R-ChHNL (Chamberlinius hualienensis),Km,[5],9.9 mM
same,Vmax,[5],14000 µmol/min/mg
same,kcat,[5],5800 s⁻¹
same,kcat/Km,[5],584000 M⁻¹ s⁻¹
same,Km,[6],5.0 mM
same,Vmax,[6],11900 µmol/min/mg
same,kcat,[6],4940 s⁻¹
same,kcat/Km,[6],989000 M⁻¹ s⁻¹
same,Km,[7],0.65 mM
same,Vmax,[7],313 µmol/min/mg
same,kcat,[7],130 s⁻¹
same,kcat/Km,[7],199000 M⁻¹ s⁻¹
"R-ChHNL: (R)-hydroxynitrile lyase purified from Chamberlinius hualienensis, amino acid sequence SEQ ID NO: 3, homodimer",stability to pH (remaining activity),[8],stability in broad pH range
same,pH of maximum activity,"[8]; 20° C., pH 3 to 11, FIG. 5",5.8
same,activity after heating at 60° C.,"[8]; 60° C. for 1 hour or longer, FIG. 6",maintained
same,activity maintained after heating at 75° C.,[8]; 75° C. for 1 hour,20%
same,optimum temperature,[8]; FIG. 6,35 °
same,temperature at which high activity is exhibited,[8]; FIG. 6,≤ 60 °C
same,activity at pH 4 as share of maximum activity value,"[8]; pH 4, FIG. 5",about 10%
same,activity in cyanohydrin synthesis direction relative to activity in cyanohydrin decomposition reaction,[9],2.6 times
"avidin: avidin, listed as biotin reagent",Remaining activity,[3]; [17],96%
oxidized glutathione,Remaining activity,"[3]; 0.5 mM, pH 7.0, 20° C., 60 minutes",95%

# Source: patent US20170166879A1, “NOVEL (R)-HYDROXYNITRILE LYASE” (PUBLIC UNIVERSITY CORPORATION TOYAMA PREFECTURAL UNIVERSITY, priority 2014, published 2017)
